In patent US8853203B2, “Diazepinone derivatives” (Novartis AG, priority 2012, dated 2014):

Assays:
human mGluR5a receptors = human mGluR5a receptors (Homo sapiens (Human), UniProt P41594); test: inhibition of glutamate-induced elevation of intracellular calcium in L(tk-) cells expressing human mGluR5a; format: cell-based; conditions: for IC50: glutamate-induced intracellular calcium elevation, L(tk-) cells expressing human mGluR5a, read-out: mGluR5 IC50; for inhibition at 10 µM: LTK, read-out: mGluR5 % inhibition at 10 μM
Text: Activity of compounds of the present invention was examined by determination to what extent the glutamate-induced elevation of the intracellular calcium concentration in L(tk-) cells expressing human mGluR5a receptors (see L. P. Daggett et al., Neuropharm. Vol. 34, pages 871-886, 1995) is inhibited by utilizing methods as described e.g. by L. P. Daggett et al., Neuropharm. Vol. 34, pages 871-886 (1995) and P. J. Flor et al., J. Neurochem. Vol. 67, pages 58-63 (1996).

human mGluR1 = human mGluR1 (Homo sapiens (Human), UniProt Q13255); test: mGluR1 antagonism, L-glutamate induced intracellular calcium increase (FLIPR) in CHO cells stably expressing human mGluR1; format: cell-based; conditions: for IC50: L-glutamate induced intracellular calcium, CHO cells expressing human mGluR1, FLIPR
Text: Activity of compounds of the present invention with respect to mGluR1 antagonism was examined by an assay based on measurements of L-glutamate induced intracellular calcium increases using a 96 well plate-based Fluorometric Imaging Plate Reader (FLIPR), and CHO cells stably expressing human mGluR1. L-glutamate induced robust calcium responses via human mGluR1 in a concentration-dependent manner and in the low micromolar range. The table below represents IC50 values of the inhibition of the glutamate-induced elevation of the intracellular calcium concentration.

Sequence of human mGluR5a receptors (P41594 other isoform, or with tags, fused parts or gaps): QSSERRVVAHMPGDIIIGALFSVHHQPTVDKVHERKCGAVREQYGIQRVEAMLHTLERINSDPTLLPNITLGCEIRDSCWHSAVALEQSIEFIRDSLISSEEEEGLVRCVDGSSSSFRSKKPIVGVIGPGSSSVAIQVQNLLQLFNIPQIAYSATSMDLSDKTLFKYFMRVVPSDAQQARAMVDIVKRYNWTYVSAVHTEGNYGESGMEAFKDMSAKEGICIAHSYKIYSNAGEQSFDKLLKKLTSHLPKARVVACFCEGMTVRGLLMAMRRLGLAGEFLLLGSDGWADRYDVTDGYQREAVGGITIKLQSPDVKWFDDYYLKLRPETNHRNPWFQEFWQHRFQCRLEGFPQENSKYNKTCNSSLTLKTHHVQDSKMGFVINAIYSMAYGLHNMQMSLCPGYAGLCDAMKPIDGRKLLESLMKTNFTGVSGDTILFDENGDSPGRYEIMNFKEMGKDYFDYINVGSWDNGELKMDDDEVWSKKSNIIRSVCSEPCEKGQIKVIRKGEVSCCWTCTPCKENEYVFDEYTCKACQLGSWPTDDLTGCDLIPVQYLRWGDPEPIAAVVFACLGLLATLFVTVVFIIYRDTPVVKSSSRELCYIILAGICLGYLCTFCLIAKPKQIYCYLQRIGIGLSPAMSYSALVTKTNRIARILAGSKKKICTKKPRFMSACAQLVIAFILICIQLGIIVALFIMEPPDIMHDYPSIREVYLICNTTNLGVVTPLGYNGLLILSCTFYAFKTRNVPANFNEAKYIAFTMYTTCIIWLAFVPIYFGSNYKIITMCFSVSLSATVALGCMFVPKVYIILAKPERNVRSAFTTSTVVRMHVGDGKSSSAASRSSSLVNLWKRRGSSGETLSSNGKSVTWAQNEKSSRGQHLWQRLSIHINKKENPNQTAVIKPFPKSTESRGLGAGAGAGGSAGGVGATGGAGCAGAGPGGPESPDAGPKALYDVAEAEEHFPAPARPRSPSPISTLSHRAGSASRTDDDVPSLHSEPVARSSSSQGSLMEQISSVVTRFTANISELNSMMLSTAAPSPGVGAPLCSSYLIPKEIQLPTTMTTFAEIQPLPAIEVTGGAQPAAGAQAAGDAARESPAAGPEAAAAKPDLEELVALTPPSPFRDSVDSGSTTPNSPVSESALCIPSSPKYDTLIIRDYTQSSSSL
Sequence of human mGluR1 (Q13255 19-1194): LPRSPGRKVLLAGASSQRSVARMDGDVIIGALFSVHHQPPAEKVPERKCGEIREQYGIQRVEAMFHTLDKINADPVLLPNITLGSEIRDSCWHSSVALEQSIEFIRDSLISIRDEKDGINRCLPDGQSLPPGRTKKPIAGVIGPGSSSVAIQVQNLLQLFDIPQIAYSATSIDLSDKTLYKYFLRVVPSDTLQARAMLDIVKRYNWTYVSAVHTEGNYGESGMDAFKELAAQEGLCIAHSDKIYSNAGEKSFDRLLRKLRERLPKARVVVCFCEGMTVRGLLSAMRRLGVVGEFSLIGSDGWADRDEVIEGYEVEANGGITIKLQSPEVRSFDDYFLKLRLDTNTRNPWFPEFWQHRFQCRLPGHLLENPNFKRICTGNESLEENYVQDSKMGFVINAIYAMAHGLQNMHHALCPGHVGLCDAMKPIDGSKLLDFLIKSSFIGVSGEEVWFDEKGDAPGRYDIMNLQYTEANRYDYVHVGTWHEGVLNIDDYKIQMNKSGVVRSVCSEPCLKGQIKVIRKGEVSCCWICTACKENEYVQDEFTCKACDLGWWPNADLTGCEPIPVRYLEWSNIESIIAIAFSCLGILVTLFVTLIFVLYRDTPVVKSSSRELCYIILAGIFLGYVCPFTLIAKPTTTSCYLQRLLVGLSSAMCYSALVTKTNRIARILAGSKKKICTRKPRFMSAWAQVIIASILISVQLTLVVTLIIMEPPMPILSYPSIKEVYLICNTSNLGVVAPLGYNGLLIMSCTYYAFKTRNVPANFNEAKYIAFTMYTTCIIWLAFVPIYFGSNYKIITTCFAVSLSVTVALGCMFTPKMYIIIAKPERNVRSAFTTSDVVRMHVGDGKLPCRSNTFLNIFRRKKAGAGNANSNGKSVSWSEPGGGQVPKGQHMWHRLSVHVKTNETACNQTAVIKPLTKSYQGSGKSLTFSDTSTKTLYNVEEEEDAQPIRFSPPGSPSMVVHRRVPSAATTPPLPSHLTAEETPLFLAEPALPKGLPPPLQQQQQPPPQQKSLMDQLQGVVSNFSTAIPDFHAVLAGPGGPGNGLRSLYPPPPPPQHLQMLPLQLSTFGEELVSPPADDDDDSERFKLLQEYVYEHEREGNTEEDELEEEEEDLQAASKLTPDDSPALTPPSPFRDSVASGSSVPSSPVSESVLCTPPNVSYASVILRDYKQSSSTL

Structure (SMILES)	IC50 (human mGluR5a receptors) [nM]	IC50 (human mGluR1) [nM]	inhibition at 10 µM (human mGluR5a receptors) [%]	inhibition at 10 µM (human mGluR1; CHO) [%]
CCc1cn(C2=NCC(=O)N3CCc4c(cccc4C4CCCO4)C3=C2)cn1 (racemic) [Example 111, 2-(4-ethyl-1H-imidazol-1-yl)-9-(tetrahydrofuran-2-yl)-7,8-dihydro-[1,4]diazepino[7,1-a]isoquinolin-5(4H)-one]	53	9300		
CCc1cn(C2=NCC(=O)N3CCc4c(cccc4C4(O)COC4)C3=C2)cn1 [2-(4-ethyl-1H-imidazol-1-yl)-9-(3-hydroxyoxetan-3-yl)-7,8-dihydro-[1,4]diazepino[7,1-a]isoquinolin-5(4H)-one]			< 20	
Cc1ccnn1C1=NCC(=O)N2CCc3c(Cl)cccc3C2=C1 [9-chloro-2-(5-methyl-1H-pyrazol-1-yl)-7,8-dihydro-[1,4]diazepino[7,1-a]isoquinolin-5(4H)-one]			< 20	
COc1cccc(C2=NCC(=O)N3CCc4c(OC)cccc4C3=C2)c1 [Example 1, 9-methoxy-2-(3-methoxyphenyl)-7,8-dihydro-[1,4]diazepino[7,1-a]isoquinolin-5(4H)-one]	327	6400		
O=C1CN=C(c2cccs2)C=C2c3cccc(Cl)c3CCN12 [Example 2, 9-chloro-2-(thiophen-2-yl)-7,8-dihydro-[1,4]diazepino[7,1-a]isoquinolin-5(4H)-one]	90	27		
COc1cccc(C2=NCC(=O)N3CCc4c(Cl)cccc4C3=C2)c1 [Example 3, 9-chloro-2-(3-methoxyphenyl)-7,8-dihydro-[1,4]diazepino[7,1-a]isoquinolin-5(4H)-one]	220	585		
O=C1CN=C(c2cccs2)C=C2c3cccc(C(F)(F)F)c3CCN12 [Example 4, 2-(thiophen-2-yl)-9-(trifluoromethyl)-7,8-dihydro-[1,4]diazepino[7,1-a]isoquinolin-5(4H)-one]	180	150		
COc1cccc(C2=NCC(=O)N3CCc4c(OC)cccc4C3=C2)n1 [Example 9, 9-methoxy-2-(6-methoxypyridin-2-yl)-7,8-dihydro-[1,4]diazepino[7,1-a]isoquinolin-5(4H)-one]	600	> 10000		
CCc1cc(C2=NCC(=O)N3CCc4c(OC)cccc4C3=C2)ccn1 [Example 10, 2-(2-ethylpyridin-4-yl)-9-methoxy-7,8-dihydro-[1,4]diazepino[7,1-a]isoquinolin-5(4H)-one]	345	940		
COc1cccc2c1CCN1C(=O)CN=C(c3ccn(C)n3)C=C21 [Example 11, 9-methoxy-2-(1-methyl-1H-pyrazol-3-yl)-7,8-dihydro-[1,4]diazepino[7,1-a]isoquinolin-5(4H)-one]	170	690		
COc1cccc(C2=NCC(=O)N3CCc4c(ccc(Cl)c4OC)C3=C2)c1 [Example 13, 10-chloro-9-methoxy-2-(3-methoxyphenyl)-7,8-dihydro-[1,4]diazepino[7,1-a]isoquinolin-5(4H)-one]	82	530		
COc1cccc(C2=NCC(=O)N3CCc4c(OC)cc(Cl)cc4C3=C2)c1 [Example 14, 11-chloro-9-methoxy-2-(3-methoxyphenyl)-7,8-dihydro-[1,4]diazepino[7,1-a]isoquinolin-5(4H)-one]	550	> 10000		
CCOc1cccc(C2=NCC(=O)N3C(=C2)c2cccc(OC)c2CC3C)c1 (centres unmarked) [Example 15, 2-(3-ethoxyphenyl)-9-methoxy-7-methyl-7,8-dihydro-[1,4]diazepino[7,1-a]isoquinolin-5(4H)-one]			42	44
COc1cccc2c1CCN1C(=O)CN=C(c3cccc(C(F)(F)F)c3)C=C21 [Example 16, 9-methoxy-2-(3-(trifluoromethyl)phenyl)-7,8-dihydro-[1,4]diazepino[7,1-a]isoquinolin-5(4H)-one]	2200	3500		
COc1ccc(C2=NCC(=O)N3CCc4c(OC)cccc4C3=C2)cc1 [Example 17, 9-methoxy-2-(4-methoxyphenyl)-7,8-dihydro-[1,4]diazepino[7,1-a]isoquinolin-5(4H)-one]	2200	> 10000		
COc1ccc(C)c(C2=NCC(=O)N3CCc4c(OC)cccc4C3=C2)c1 [Example 18, 9-methoxy-2-(5-methoxy-2-methylphenyl)-7,8-dihydro-[1,4]diazepino[7,1-a]isoquinolin-5(4H)-one]	4100	> 10000		
O=C1CN=C(c2cccs2)C=C2c3cccc(F)c3CCN12 [Example 19, 9-fluoro-2-(thiophen-2-yl)-7,8-dihydro-[1,4]diazepino[7,1-a]isoquinolin-5(4H)-one]	4500	800		
COc1cccc(C2=NCC(=O)N3CCc4c(Br)cccc4C3=C2)c1 [Example 20, 9-bromo-2-(3-methoxyphenyl)-7,8-dihydro-[1,4]diazepino[7,1-a]isoquinolin-5(4H)-one]	1200	2800		
COc1cccc2c1CCN1C(=O)CN=C(c3ccnc(N(C)C)c3)C=C21 [Example 21, 2-(2-(dimethylamino)pyridin-4-yl)-9-methoxy-7,8-dihydro-[1,4]diazepino[7,1-a]isoquinolin-5(4H)-one]	3900	5200		
COc1cccc(C2=NCC(=O)N3CCc4c(cccc4C(C)(C)O)C3=C2)c1 [Example 26, 9-(2-hydroxypropan-2-yl)-2-(3-methoxyphenyl)-7,8-dihydro-[1,4]diazepino[7,1-a]isoquinolin-5(4H)-one]	235	> 10000		
Cn1ccc(C2=NCC(=O)N3CCc4c(cccc4C(C)(C)O)C3=C2)n1 [Example 27, 9-(2-hydroxypropan-2-yl)-2-(1-methyl-1H-pyrazol-3-yl)-7,8-dihydro-[1,4]diazepino[7,1-a]isoquinolin-5(4H)-one]	437	> 10000		
O=C1CN=C(c2ccco2)C=C2c3cccc(-c4ccncc4)c3CCN12 [Example 28, 2-(furan-2-yl)-9-(pyridin-4-yl)-7,8-dihydro-[1,4]diazepino[7,1-a]isoquinolin-5(4H)-one]	80	4800		
O=C1CN=C(c2cccs2)C=C2c3cccc(Br)c3CCN12 [Example 29, 9-bromo-2-(thiophen-2-yl)-7,8-dihydro-[1,4]diazepino[7,1-a]isoquinolin-5(4H)-one]	90	8		
COc1cccc(C2=NCC(=O)N3CCc4c(I)cccc4C3=C2)c1 [Example 30, 9-iodo-2-(3-methoxyphenyl)-7,8-dihydro-[1,4]diazepino[7,1-a]isoquinolin-5(4H)-one]	150	1400		

Continued, values first:

IC50 (human mGluR5a receptors) [nM]	IC50 (human mGluR1) [nM]	inhibition at 10 µM (human mGluR5a receptors) [%]	inhibition at 10 µM (human mGluR1; CHO) [%]	Structure (SMILES)
44	15			COc1cccc2c1CCN1C(=O)CN=C(c3cccs3)C=C21 [Example 5, 9-methoxy-2-(thiophen-2-yl)-7,8-dihydro-[1,4]diazepino[7,1-a]isoquinolin-5(4H)-one]
75	3050			COc1cc(C2=NCC(=O)N3CCc4c(Cl)cccc4C3=C2)ccn1 [Example 6, 9-chloro-2-(2-methoxypyridin-4-yl)-7,8-dihydro-[1,4]diazepino[7,1-a]isoquinolin-5(4H)-one]
24	210			COc1cccc2c1CCN1C(=O)CN=C(c3ccc(C)o3)C=C21 [Example 7, 9-methoxy-2-(5-methylfuran-2-yl)-7,8-dihydro-[1,4]diazepino[7,1-a]isoquinolin-5(4H)-one]
22	4900			COc1cc(C2=NCC(=O)N3CCc4c(OC)cccc4C3=C2)ccn1 [Example 8, 9-methoxy-2-(2-methoxypyridin-4-yl)-7,8-dihydro-[1,4]diazepino[7,1-a]isoquinolin-5(4H)-one]
46	1300			COCCOc1cccc(C2=NCC(=O)N3CCc4c(OC)cccc4C3=C2)c1 [Example 12, 9-methoxy-2-(3-(2-methoxyethoxy)phenyl)-7,8-dihydro-[1,4]diazepino[7,1-a]isoquinolin-5(4H)-one]
71	> 10000			COc1cc(C2=NCC(=O)N3CCc4c(cccc4N4CCOCC4)C3=C2)ccn1 [Example 22, 2-(2-methoxypyridin-4-yl)-9-morpholino-7,8-dihydro-[1,4]diazepino[7,1-a]isoquinolin-5(4H)-one]
22	> 10000			Cc1ccc(C2=NCC(=O)N3CCc4c(cccc4N4CCOCC4)C3=C2)o1 [Example 23, 2-(5-methylfuran-2-yl)-9-morpholino-7,8-dihydro-[1,4]diazepino[7,1-a]isoquinolin-5(4H)-one]
35	> 10000			Cn1ccc(C2=NCC(=O)N3CCc4c(cccc4N4CCOCC4)C3=C2)n1 [Example 24, 2-(1-methyl-1H-pyrazol-3-yl)-9-morpholino-7,8-dihydro-[1,4]diazepino[7,1-a]isoquinolin-5(4H)-one]
66	> 10000			Cn1cc(C2=NCC(=O)N3CCc4c(cccc4N4CCOCC4)C3=C2)cn1 [Example 25, 2-(1-methyl-1H-pyrazol-4-yl)-9-morpholino-7,8-dihydro-[1,4]diazepino[7,1-a]isoquinolin-5(4H)-one]
38				O=C1CN=C(n2cnc(C3CCC3)n2)C=C2c3cccc(-c4ccc(F)nc4)c3CCN12 [Example 99h, 2-(3-cyclobutyl-1H-1,2,4-triazol-1-yl)-9-(6-fluoropyridin-3-yl)-7,8-dihydro-[1,4]diazepino[7,1-a]isoquinolin-5(4H)-one]
